Experimental data reported in US10322191B2, “Targeted conjugates and particles and formulations thereof” (TARVEDA THERAPEUTICS, INC., priority 2014, dated 2019).
Where two headings read alike, the source gives them in different places. Bridge positions count the residues as written; N and C are the ends. Square brackets hold non-standard residues; d marks the D form. Peptide text beside a SMILES is read from it. * marks the point of attachment. NH(CH2)2SS(DM1) = COc1cc2cc(c1Cl)N(C)C(=O)C[C@H](OC(=O)[C@H](C)N(C)C(=O)CCSSCCN*)[C@]1(C)O[C@H]1[C@H](C)[C@@H]1C[C@@](O)(NC(=O)O1)[C@H](OC)/C=C/C=C(\C)C2

Tested on: NCI-H524 (ATCC) human lung cancer cells
Type: cell-based
Conditions: Table 15
Experimental: Conjugates were assessed in an in vitro assay evaluating inhibition of cell proliferation. NCI-H524 (ATCC) human lung cancer cells were plated in 96 well, V-bottomed plates (Costar) at a concentration of 5,000 cells/well and 24 hours later were treated with compound for 2 hours and further incubated 70 hours. Compound starting dose was 20 μM and three-fold serial dilutions were done for a total of ten points. After 2 hours of treatment, cells were spun down, the drug containing media was removed, and fresh complete medium was added and used to resuspend the cells, which were spun again. After removal of the wash media, the cells were resuspended in complete medium, then transferred into white walled, flat bottomed 96 well plates. […] Proliferation was measured using CellTiter Glo reagent using the standard protocol (Promega) and a Glomax multi+detection system (Promega). Percent proliferation inhibition was calculated using the following formula: % inhibition=(control-treatment)/control*100. Control is defined as vehicle alone. IC50 curves were generated using the nonlinear regression analysis (four parameter) with GraphPad Prism 6.
Conjugates of the present invention were assessed in an in vitro assay evaluating inhibition of cell proliferation. NCI-H524 (ATCC) human lung cancer cells were plated in 96 well, V-bottomed plates (Costar) at a concentration of 5,000 cells/well. 24 hours later, cells were treated with either conjugate for 2 hours and further incubated 70 hours, or for octreotide competition experiments, treated with 100 μM octreotide for 30 min, and then treated with conjugate for 2 hours, and further incubated for 70 hours. Conjugate starting dose was 20 μM and three fold serial dilutions were done for a total of ten points. After 2 hours of treatment, cells were spun down, the drug containing media was removed, and fresh complete medium was added and used to resuspend the cells, which were spun again. After removal of the wash media, the cells were resuspended in complete medium, then transferred into white walled, flat bottomed 96 well plates. […] Proliferation was measured using CellTiter Glo reagent using the standard protocol (Promega) and a Glomax multi+detection system (Promega). Percent proliferation inhibition was calculated using the following formula: % inhibition=(control-treatment)/control*100. Control is defined as vehicle alone. IC50 curves were generated using the nonlinear regression analysis (four parameter) with GraphPad Prism 6.
Conjugates of the present invention were tested for their activity dependence on the somatostatin receptor. Active agent Z in the conjugate was selected from auristatin, carbazitaxel, DM1, doxorubicin, platinum, SN-38 and vinblastine. Active agent Z is connected to octreotide with various linkers. Proliferation IC50 values of the conjugates were measured. Proliferation IC50 values of the conjugates without octreotide competition were also measured. The ratio of IC50 with octreotide competition and IC50 without octreotide competition is an indicator of whether activity is at least partially dependent on bind to the somatostatin receptor.

[1] = treated 2 hours, further incubated 70 hours, read-out: H524 IC50
[2] = read-out: H524 IC50+ 100 uM octreotide, 100 μM octreotide for 30 min, then conjugate 2 hours, 70 hours incubation

Compound | IC50 [1] | IC50 [2]
COc1cc2cc(c1Cl)N(C)C(=O)C[C@H](OC(=O)[C@H](C)N(C)C(=O)CCSSC1CCN(C(=O)CC[C@H]3C(=O)N[C@@H](Cc4ccc(O)cc4)C(=O)N[C@H](Cc4c[nH]c5ccccc45)C(=O)N[C@@H](CCCCN)C(=O)N[C@@H]([C@@H](C)O)C(=O)N[C@@H](Cc4ccccc4)C(=O)N3C)CC1)[C@]1(C)O[C@H]1[C@H](C)[C@@H]1C[C@@](O)(NC(=O)O1)[C@H](OC)/C=C/C=C(\C)C2 [Conjugate 28] | 669 nM | 1000 nM
CCCCCCCCCCC(CCN[C@H](Cc1ccccc1)C(=O)N[C@H]1CSSC[C@@H](C(=O)N[C@@H](Cc2c[nH]c3ccccc23)C(N)=O)NC(=O)[C@H]([C@@H](C)O)NC(=O)[C@H](CCCCN)NC(=O)[C@@H](Cc2c[nH]c3ccccc23)NC(=O)[C@H](Cc2ccc(O)cc2)NC1=O)SSCCC(=O)N(C)[C@@H](C)C(=O)O[C@H]1CC(=O)N(C)c2cc(cc(OC)c2Cl)C/C(C)=C/C=C/[C@@H](OC)[C@@]2(O)C[C@H](OC(=O)N2)[C@@H](C)[C@@H]2O[C@@]12C (some centres unmarked) [Conjugate 102] | 335 nM | 579 nM
COc1cc2cc(c1Cl)N(C)C(=O)C[C@H](OC(=O)[C@H](C)N(C)C(=O)CCSSCCCN1CCN(CC(=O)N[C@H](Cc3ccccc3)C(=O)N[C@H]3CSSC[C@@H](C(=O)N[C@H](CO)[C@@H](C)O)NC(=O)[C@H]([C@@H](C)O)NC(=O)[C@H](CCCCN)NC(=O)[C@@H](Cc4c[nH]c5ccccc45)NC(=O)[C@H](Cc4ccccc4)NC3=O)CC1)[C@]1(C)O[C@H]1[C@H](C)[C@@H]1C[C@@](O)(NC(=O)O1)[C@H](OC)/C=C/C=C(\C)C2 [Conjugate 86] | 386 nM | 553 nM
COc1cc2cc(c1Cl)N(C)C(=O)C[C@H](OC(=O)[C@H](C)N(C)C(=O)CCSC1CC(=O)N(CCCNC(=O)CC[C@H](NC(=O)[C@@H]3CSSC[C@H](NC(=O)[C@H](N)Cc4ccccc4)C(=O)N[C@@H](Cc4ccc(O)cc4)CN[C@H](Cc4c[nH]c5ccccc45)C(=O)N[C@@H](CCCCN)C(=O)N[C@@H]([C@@H](C)O)C(=O)N3)C(=O)NCCCN3C(=O)CC(SCCC(=O)N(C)[C@@H](C)C(=O)O[C@H]4CC(=O)N(C)c5cc(cc(OC)c5Cl)C/C(C)=C/C=C/[C@@H](OC)[C@@]5(O)C[C@H](OC(=O)N5)[C@@H](C)[C@@H]5O[C@@]45C)C3=O)C1=O)[C@]1(C)O[C@H]1[C@H](C)[C@@H]1C[C@@](O)(NC(=O)O1)[C@H](OC)/C=C/C=C(\C)C2 (some centres unmarked) [Conjugate 53] | 42 nM | 175 nM
COc1cc2cc(c1Cl)N(C)C(=O)C[C@H](OC(=O)[C@H](C)N(C)C(=O)CCSSCCC(=O)NCCNC(=O)[C@@H](NC(=O)[C@@H]1CSSC[C@H](NC(=O)[C@H](N)Cc3c[nH]c4ccccc34)C(=O)N[C@@H](Cc3ccc(O)cc3)C(=O)N[C@H](Cc3c[nH]c4ccccc34)C(=O)N[C@@H](CCCCN)C(=O)N[C@@H]([C@@H](C)O)C(=O)N1)[C@@H](C)O)[C@]1(C)O[C@H]1[C@H](C)[C@@H]1C[C@@](O)(NC(=O)O1)[C@H](OC)/C=C/C=C(\C)C2 [Conjugate 51] | 124 nM | 238 nM
COc1cc2cc(c1Cl)N(C)C(=O)C[C@H](OC(=O)[C@H](C)N(C)C(=O)CCSSC[C@@H](N)C(=O)N[C@H]1CSSC[C@@H](C(=O)N[C@H](C(=O)O)[C@@H](C)O)NC(=O)[C@H]([C@@H](C)O)NC(=O)[C@H](CCCCN)NC(=O)[C@@H](Cc3c[nH]c4ccccc34)NC(=O)[C@H](Cc3ccc(O)cc3)NC1=O)[C@]1(C)O[C@H]1[C@H](C)[C@@H]1C[C@@](O)(NC(=O)O1)[C@H](OC)/C=C/C=C(\C)C2 [Conjugate 119] | 2660 nM | > 5000 nM
COc1cc2cc(c1Cl)N(C)C(=O)C[C@H](OC(=O)[C@H](C)N(C)C(=O)CCSSCCNC(=O)[C@H](Cc1c[nH]c3ccccc13)NC(=O)[C@@H]1CSSC[C@H](NC(=O)[C@H](N)Cc3ccccc3)C(=O)N[C@@H](Cc3ccc(O)cc3)CN[C@H](Cc3c[nH]c4ccccc34)C(=O)N[C@@H](CCCCN)C(=O)N[C@@H]([C@@H](C)O)C(=O)N1)[C@]1(C)O[C@H]1[C@H](C)[C@@H]1C[C@@](O)(NC(=O)O1)[C@H](OC)/C=C/C=C(\C)C2 [Conjugate 49] | 69 nM | 243 nM
COc1cc2cc(c1Cl)N(C)C(=O)C[C@H](OC(=O)[C@H](C)N(C)C(=O)CCSC1CC(=O)N(CC3CCC(C(=O)N[C@H](Cc4ccccc4)C(=O)N[C@H]4CSSC[C@@H](C(=O)N[C@H](CO)[C@@H](C)O)NC(=O)[C@H]([C@@H](C)O)NC(=O)[C@H](CCCCN)NC(=O)[C@@H](Cc5c[nH]c6ccccc56)NC(=O)[C@H](Cc5ccccc5)NC4=O)CC3)C1=O)[C@]1(C)O[C@H]1[C@H](C)[C@@H]1C[C@@](O)(NC(=O)O1)[C@H](OC)/C=C/C=C(\C)C2 (some centres unmarked) [Conjugate 104] | 279 nM | 705 nM
COc1cc2cc(c1Cl)N(C)C(=O)C[C@H](OC(=O)[C@H](C)N(C)C(=O)CCSSCCOCCOCCOCCOCCCN[C@H](Cc1ccccc1)C(=O)N[C@H]1CSSC[C@@H](C(=O)N[C@H](CO)[C@@H](C)O)NC(=O)[C@H]([C@@H](C)O)NC(=O)[C@H](CCCCN)NC(=O)[C@@H](Cc3c[nH]c4ccccc34)NC(=O)[C@H](Cc3ccccc3)NC1=O)[C@]1(C)O[C@H]1[C@H](C)[C@@H]1C[C@@](O)(NC(=O)O1)[C@H](OC)/C=C/C=C(\C)C2 [Conjugate 96] | 206 nM | 397 nM
COc1cc2cc(c1Cl)N(C)C(=O)C[C@H](OC(=O)[C@H](C)N(C)C(=O)CCSC1CC(=O)N(CCCNC(=O)CC[C@H]3C(=O)N[C@@H](Cc4ccc(O)cc4)C(=O)N[C@H](Cc4c[nH]c5ccccc45)C(=O)N[C@@H](CCCCN)C(=O)N[C@@H]([C@@H](C)O)C(=O)N[C@@H](Cc4ccccc4)C(=O)N3C)C1=O)[C@]1(C)O[C@H]1[C@H](C)[C@@H]1C[C@@](O)(NC(=O)O1)[C@H](OC)/C=C/C=C(\C)C2 (some centres unmarked) [Conjugate 12] | 1680 nM | 2340 nM
COc1cc2cc(c1Cl)N(C)C(=O)C[C@H](OC(=O)[C@H](C)N(C)C(=O)CCSSCCOCCOCCOCCOCCC(=O)N[C@H](Cc1ccccc1)C(=O)N[C@H]1CSSC[C@@H](C(=O)N[C@H](CO)[C@@H](C)O)NC(=O)[C@H]([C@@H](C)O)NC(=O)[C@H](CCCCN)NC(=O)[C@@H](Cc3c[nH]c4ccccc34)NC(=O)[C@H](Cc3ccccc3)NC1=O)[C@]1(C)O[C@H]1[C@H](C)[C@@H]1C[C@@](O)(NC(=O)O1)[C@H](OC)/C=C/C=C(\C)C2 [Conjugate 98] | 690 nM | 1120 nM
COc1cc2cc(c1Cl)N(C)C(=O)C[C@H](OC(=O)[C@H](C)N(C)C(=O)CCSSC(C)CCN[C@H](Cc1ccccc1)C(=O)N[C@H]1CSSC[C@@H](C(=O)N[C@H](CO)[C@@H](C)O)NC(=O)[C@H]([C@@H](C)O)NC(=O)[C@H](CCCCN)NC(=O)[C@@H](Cc3c[nH]c4ccccc34)NC(=O)[C@H](Cc3ccccc3)NC1=O)[C@]1(C)O[C@H]1[C@H](C)[C@@H]1C[C@@](O)(NC(=O)O1)[C@H](OC)/C=C/C=C(\C)C2 (some centres unmarked) [Conjugate 82] | 148 nM | 867 nM
COc1cc2cc(c1Cl)N(C)C(=O)C[C@H](OC(=O)[C@H](C)N(C)C(=O)CCSSCCNC(=O)[C@@H]1CSSC[C@H](NC(=O)[C@H](N)Cc3ccccc3)C(=O)N[C@@H](Cc3ccc(O)cc3)C(=O)N[C@H](Cc3c[nH]c4ccccc34)C(=O)N[C@@H](CCCCN)C(=O)N[C@@H]([C@@H](C)O)C(=O)N1)[C@]1(C)O[C@H]1[C@H](C)[C@@H]1C[C@@](O)(NC(=O)O1)[C@H](OC)/C=C/C=C(\C)C2 [Conjugate 59] (H-[dF]CY[dW]KTC-{NH(CH2)2SS(DM1)}; disulfide 2-7) | 24 nM | 170 nM
